Measurements as given in the NIST ThermoML archive (doi:10.1016/j.fluid.2015.02.014).
± gives the expanded uncertainty stated by the source.

Settings: Liquid, Closed cell (Static) method

Row | Structure (SMILES) | vapor or sublimation pressure (283.15 K) [kPa] | vapor or sublimation pressure (293.15 K) [kPa] | vapor or sublimation pressure (303.15 K) [kPa] | vapor or sublimation pressure (313.15 K) [kPa] | vapor or sublimation pressure (323.15 K) [kPa]
1 | CCF [fluoroethane] | 601.2 ± 1.3 | 805.6 ± 1.5 | 1058.8 ± 1.8 | 1365.8 ± 2.2 | 1735.2 ± 2.7
2 | C=C(F)C(F)(F)F [2,3,3,3-tetrafluoro-1-propene] | 437.9 ± 1.2 | 591.5 ± 1.3 | 782.9 ± 1.5 | 1018.2 ± 1.8 | 1302.4 ± 2.1
